These results are taken from US20200405697A1, “Antitumor Agent” (Taiho Pharmaceutical Co., Ltd, priority 2017, published 2020).

Assay [1] deals with T1, human RNR (histidine tagged human M1 and human M2 proteins) (Homo sapiens, UniProt P23921).
T1 construct: made in house; host or cells: Escherichia coli
T1 sequence (P23921 1-792): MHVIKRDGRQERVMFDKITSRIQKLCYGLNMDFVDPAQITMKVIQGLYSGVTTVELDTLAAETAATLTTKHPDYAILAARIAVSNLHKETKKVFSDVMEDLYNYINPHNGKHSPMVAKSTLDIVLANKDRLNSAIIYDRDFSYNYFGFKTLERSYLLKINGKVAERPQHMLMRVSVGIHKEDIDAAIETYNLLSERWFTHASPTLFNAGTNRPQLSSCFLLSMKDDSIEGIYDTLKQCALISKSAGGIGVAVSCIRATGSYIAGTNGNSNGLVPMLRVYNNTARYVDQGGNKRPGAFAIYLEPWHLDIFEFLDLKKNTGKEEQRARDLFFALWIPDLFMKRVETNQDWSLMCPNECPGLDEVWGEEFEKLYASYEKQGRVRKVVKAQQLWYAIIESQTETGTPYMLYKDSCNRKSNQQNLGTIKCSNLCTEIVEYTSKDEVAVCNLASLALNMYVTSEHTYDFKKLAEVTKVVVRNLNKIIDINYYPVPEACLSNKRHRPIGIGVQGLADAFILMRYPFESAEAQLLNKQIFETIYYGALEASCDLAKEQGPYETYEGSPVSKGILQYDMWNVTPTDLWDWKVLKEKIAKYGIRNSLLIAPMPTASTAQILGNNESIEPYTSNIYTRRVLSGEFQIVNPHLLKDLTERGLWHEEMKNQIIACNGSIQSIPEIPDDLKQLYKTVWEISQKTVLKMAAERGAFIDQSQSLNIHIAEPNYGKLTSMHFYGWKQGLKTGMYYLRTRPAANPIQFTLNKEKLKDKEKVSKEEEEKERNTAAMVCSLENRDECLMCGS
Put plainly: Human RNR inhibition effect (dCDP formation from CDP). To be noted: 10 μM CDP, 37° C. for 30 minutes, read-out: RNR inhibitory activity IC50. The format is biochemical. An outline of the steps: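 His-tagged human M1 (isoform 1) and N-terminal 59-aa-truncated M2 (isoform 2), E. coli-expressed, Ni-purified, preincubated 20 min with compound (1% DMSO). Reaction with 10 μM CDP, 2 mM ATP, 0.24 mM NADPH, 6 mM DTT, 4 mM Mg acetate, 100 mM KCl, 50 mM HEPES pH 7.2, 30 min at 37° C. dCDP formed quantified by reverse-phase HPLC after heat stop.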

Assay [2] relates to HCT116 (Human large intestine cancer cell line). Nature of the assay: Effect of combination of sulfonamide compound and other antitumor agent (CellTiter-Glo, combination index): HCT116. Type of assay: cell-based.
Protocol: Each cell line was seeded at 90 L/well to a 96-well culture plate (Thermo Fisher Scientific, Inc.) according to the above tables. The cell-seeded plate was cultured in an incubator set to 37° C. and 500 CO2. On the day following seeding, varying concentrations of the sulfonamide compound and the other antitumor agent were added in combination to the cells. […] The serial dilutions of each compound, or DW was added at 5μL/well to the plate such that each compound and DW, or the sulfonamide compound and the other antitumor agent were combined. […] The plate after the addition was cultured at 37° C. for 3 days under 5% CO2 conditions.
Three days later, CellTiter-Glo(R) 2.0 Reagent (Promega Corporation) was added at 100 μL/well, and the amount of luminescence was measured using a plate reader EnSpire(R) Multimode Plate Reader (PerkinElmer Co., Ltd.).
An average value from 3 wells was calculated as to each drug condition from the obtained data, and cell survival rate normalized against control wells supplemented with the vehicle (DW) was calculated. A Fa (fractional inhibition) value was calculated by subtracting the cell survival rate from 1.
Where [3] appears, read: Example Compound 1 341 nM + Prexasertib 7.14 nM, molar ratio 1:0.02093.
The mark [4] stands for this setting: Example Compound 1 512 nM + Prexasertib 10.7 nM, molar ratio 1:0.02093.
[5] abbreviates: Example Compound 1 768 nM + AZD6738 508 nM, molar ratio 1:0.6621.
Setting [6] is: Example Compound 1 768 nM + Prexasertib 16.1 nM, molar ratio 1:0.02093.
Where [7] appears, read: Example Compound 1 1150 nM + AZD6738 761 nM, molar ratio 1:0.6621.

For orientation: IC50 means the concentration needed to halve the response being measured.

In the case of `Cc1ccc(F)c([C@@H](C)[C@H](NS(=O)(=O)c2ccc(Br)cc2C(N)=O)c2n[nH]c(=O)o2)c1C` [Example 1, 5-bromo-2-(N-((1 S,2R)-2-(6-fluoro-2,3-dimethylphenyl)-1-(5-oxo-4,5-dihydro-1,3,4-oxadiazol-2-yl)propyl)sulfamoyl)benzamide], the IC50 in assay [1] came to 60 nM. The CI value in assay [2] (setting [3]) is listed as 0.451; in assay [2] (setting [4]), 0.243; in assay [2] (setting [5]) it was 0.264; in assay [2] (setting [6]), 0.197; in assay [2] (setting [7]) it was 0.218. The Fa value in assay [2] (setting [3]) was 0.6993; in assay [2] (setting [4]) it was 0.9038; in assay [2] (setting [5]), 0.8782; in assay [2] (setting [6]), 0.9579; in assay [2] (setting [7]) it was 0.9579.
